Tests used:
[1] = system: HER-2-E0771 mammary tumour cells; experiment: Tumour growth of HER-2-E0771 mammary tumours in HER-2 TG mice after adoptive transfer of HER-2 CAR T cells, with MSI-1436 treatment; type: in vivo; settings: MSI-1436 5 mg/kg intraperitoneally on days 1, 4, 7, 10, 13, 16 and 19 post adoptive transfer of total 20×10^6 HER-2 CAR T cells; versus saline; no IL-2; female HER-2 TG mice
Experimental: HER-2-E0771 mammary tumour cells (2×10^5) were injected into the fourth inguinal mammary fat pads of female HER-2 TG mice. Seven days after tumour injection HER-2 TG mice received total body irradiation (4 Gy) followed by the adoptive transfer of total 20×10^6 HER-2 CAR T cells (=6×10^6 viable mCherry^+HER2 CAR^+CD8^+CD44^hiCD62L^hi T cells) generated from Ptp1b^fl/fl versus Lck-Cre;Ptp1b^fl/fl splenocytes; mice were not administered IL-2. Mice were treated with PTP1B specific allosteric inhibitor MSI-1436 (5 mg/kg intraperitoneally) or saline on days 1, 4, 7, 10, 13, 16 and 19 post adoptive transfer and tumour growth was monitored. Representative results (means±SEM) from at least two independent experiments are shown. Significance was determined using 2-way ANOVA Test; *p<0.05 ****p<0.0001.
HER-2-E0771 mammary tumour cells (2×10^5) were injected into the fourth inguinal mammary fat pads of female HER-2 TG mice. […] Mice were treated with PTP1B specific allosteric inhibitor MSI-1436 (5 mg/kg intraperitoneally) or saline on days 1, 4, 7, 10, 13, 16 and 19 post adoptive transfer and tumour growth was monitored. […] Significance was determined using 2-way ANOVA Test; *p<0.05, ****p<0.0001.

[2] = system: HER-2-E0771 mammary tumour cells; experiment: Tumour growth of HER-2-E0771 mammary tumours in HER-2 TG mice after adoptive transfer of control or Ptpn2-/- HER-2 CAR T cells, with MSI-1436 treatment; type: in vivo; settings: MSI-1436 5 mg/kg intraperitoneally on days 1, 4 and 7 post adoptive transfer of total 5×10^6 control or Ptpn2-/- HER-2 CAR T cells; versus saline; female HER-2 TG mice
Experimental: HER-2-E0771 mammary tumour cells (2×10^5) were injected into the fourth inguinal mammary fat pads of female HER-2 TG mice. Seven days after tumour injection HER-2 TG mice received total body irradiation (4 Gy) followed by the adoptive transfer of total 5×10^6 HER-2 CAR T cells (=0.8×10^6 viable mCherry^+HER-2 CAR^+CD8^+CD44^hiCD62L^hi T cells) control (ctrl) or Ptpn2^−/− HER-2 CAR CD8 T cells (PTPN2 had been deleted by CRISPR-RNP). HER-2 mice were treated with MSI-1436 (5 mg/kg intraperitoneally) or saline on days 1, 4, and 7 post adoptive transfer and tumour growth was monitored. Significance in was determined using 2-way ANOVA Test; ****p<0.0001.

CC(C)[C@@H](CC[C@@H](C)[C@H]1CC[C@H]2[C@@H]3[C@H](O)C[C@H]4C[C@@H](NCCCNCCCCNCCCN)CC[C@]4(C)[C@H]3CC[C@]12C)OS(=O)(=O)O [MSI-1436, Trodusquemine]
tumour growth (tumour-specific activity of HER2 CAR T cells in vivo) [1]: Enhances the Tumour-Specific Activity of HER2 CAR T Cells In Vivo
tumour growth (activity of CAR T cells in vivo) [2]: ‘supercharges’ CAR T cells in vivo
